Assay results reported in US20230131966A1, “FUNGICIDAL AMIDES” (FMC Corporation, priority 2020, published 2023).

Key:
Type in all cases: in vivo
Phakopsora pachyrhizi = experiment: Test A: Asian soybean rust control on soybean seedlings; details: soybean seedlings, 100 = 100% disease control, 0 = no control
[1] = system: Puccinia recondita f. sp. tritici; experiment: Test B: wheat leaf rust control on wheat seedlings; details: wheat seedlings, 100 = 100% disease control, 0 = no control
Zymoseptoria tritici = experiment: Test C: wheat leaf blotch control on wheat seedlings; details: wheat seedlings, 100 = 100% disease control, 0 = no control
Plasmopara viticola = experiment: Test D: grape downy mildew control on grape seedlings; details: 100 = 100% disease control, 0 = no control
Botrytis cinerea = experiment: Test E: tomato Botrytis control on tomato seedlings; details: 100 = 100% disease control, 0 = no control
Phytophthora infestans = experiment: whole plant or invertebrate; details: tomato seedlings, 100 = 100% disease control, 0 = no control
[2] = system: Erysiphe graminis f. sp. tritici; experiment: Test G: wheat powdery mildew control on wheat seedlings; details: 100 = 100% disease control, 0 = no control

Compound | Test A disease control rating (Phakopsora pachyrhizi; 250 ppm) | Test B disease control rating ([1]; 250 ppm) | Test C disease control rating (Zymoseptoria tritici; 250 ppm) | Test D disease control rating (Plasmopara viticola; 250 ppm) | Test E disease control rating (Botrytis cinerea; 250 ppm) | Test F disease control rating (Phytophthora infestans; 250 ppm) | Test G disease control rating ([2]; 250 ppm) | Test A disease control rating (Phakopsora pachyrhizi; 50 ppm) | Test B disease control rating ([1]; 50 ppm) | Test C disease control rating (Zymoseptoria tritici; 50 ppm) | Test D disease control rating (Plasmopara viticola; 50 ppm) | Test E disease control rating (Botrytis cinerea; 50 ppm) | Test F disease control rating (Phytophthora infestans; 50 ppm) | Test G disease control rating ([2]; 50 ppm)
COc1ccnc(C(=O)N[C@@H](C)C(=O)OC(C)c2ccc(C3CCCCC3)cc2)c1OCOC(C)=O (single isomer, unassigned) [Compound 146] | 73% | 91% | 91% | 31% | 0% | 0% | 60% | – | – | – | – | – | – | –
C#Cc1ccc(C(C)OC(=O)C(C)NC(=O)c2nccc(OC)c2O)cc1 (mixture of isomers) [Compound 78] | 100% | 100% | 82% | 85% | 0% | 0% | 0% | – | – | – | – | – | – | –
COc1ccnc(C(=O)NC(C)C(=O)OC(C)C2CCC(C)(C)CC2)c1O (mixture of isomers) [Compound 173] | 100% | 98% | 66% | 8% | 0% | 0% | 0% | – | – | – | – | – | – | –
COc1ccnc(C(=O)N[C@@H](C)C(=O)OC(C)c2ccc(C(C)(C)C)cc2)c1O (stereo partly shown) [Compound 123] | 100% | 100% | 84% | 57% | 0% | 24% | 0% | – | – | – | – | – | – | –
COc1ccc(COc2c(OC)ccnc2C(=O)NC(C)C(=O)OC(C)c2ccc(C3CCCCC3)cc2)cc1 (mixture of isomers) [Compound 155] | 100% | 99% | 98% | 5% | 0% | 0% | 0% | – | – | – | – | – | – | –
COc1ccnc(C(=O)NC(C)C(=O)OC(C)C2CCCCCC2)c1O (mixture of isomers) [Compound 102] | – | – | – | – | – | – | – | 100% | 55% | 0% | 72% | 0% | 0% | 0%
CCC(OC(=O)[C@H](C)NC(=O)c1nccc(OC)c1OC(C)=O)c1ccc(C2CCCCC2)cc1 (single isomer, unassigned) [Compound 130] | 96% | 74% | 12% | 9% | 0% | 0% | 0% | – | – | – | – | – | – | –
COc1ccnc(C(=O)NC(C)C(=O)OC(C)c2ccc(-n3ccc(C(F)(F)F)n3)cc2-n2ccc(C(F)(F)F)n2)c1OC(C)=O (mixture of isomers) [Compound 90] | 0% | 55% | 0% | 17% | 0% | 0% | 0% | – | – | – | – | – | – | –
COc1ccnc(C(=O)NC(C)C(=O)N(C)C(C)c2ccc(C3CCCCC3)cc2)c1OC(C)=O (mixture of isomers) [Compound 99] | 98% | 68% | 88% | 39% | 0% | 0% | 0% | – | – | – | – | – | – | –
CCCCCCc1ccc(C(C)OC(=O)C(C)NC(=O)c2nccc(OC)c2O)cc1 (mixture of isomers) [Compound 68] | 100% | 95% | 97% | 46% | 0% | 40% | 0% | – | – | – | – | – | – | –
